Experimental data as given in publication PMC7470021, “Functionality study of chalcone-hydroxypyridinone hybrids as tyrosinase inhibitors and influence on anti-tyrosinase activity” (Journal of Enzyme Inhibition and Medicinal Chemistry, 2020).
Like-named read-outs stand apart in the source and are kept apart here.

What was measured:
[1] = biological target: T1, monophenolase activity of mushroom tyrosinase (Agaricus bisporus, UniProt C7FF04); design: method as in PMID 15231412; conditions: at 50 μM, literature value; cited from earlier work
T1 sequence (G1K3P4 entry or part of it): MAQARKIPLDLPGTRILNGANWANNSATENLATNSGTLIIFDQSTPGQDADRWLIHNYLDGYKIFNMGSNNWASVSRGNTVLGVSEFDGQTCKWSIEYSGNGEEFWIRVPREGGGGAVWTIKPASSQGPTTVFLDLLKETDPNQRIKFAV
T1 sequence (C7FF04 1-392): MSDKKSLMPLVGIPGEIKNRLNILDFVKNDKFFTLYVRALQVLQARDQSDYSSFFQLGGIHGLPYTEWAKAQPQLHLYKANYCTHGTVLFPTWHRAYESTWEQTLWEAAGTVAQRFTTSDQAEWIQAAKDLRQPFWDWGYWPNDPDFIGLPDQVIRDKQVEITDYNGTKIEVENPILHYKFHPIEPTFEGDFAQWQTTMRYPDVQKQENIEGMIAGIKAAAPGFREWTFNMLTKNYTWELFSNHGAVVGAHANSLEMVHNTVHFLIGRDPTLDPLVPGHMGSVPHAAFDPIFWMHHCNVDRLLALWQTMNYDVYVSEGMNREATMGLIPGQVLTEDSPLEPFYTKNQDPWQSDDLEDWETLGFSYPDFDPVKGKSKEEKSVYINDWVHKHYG

[2] = biological target: T1, monophenolase activity of mushroom tyrosinase; assay: Monophenolase inhibition assay (L-tyrosine substrate, dopachrome absorbance at 475 nm); conditions: pH 6.8, read-out: Inhibition (%) on monophenolase activity
Protocol: L-Tyrosine and L-DOPA were used as reaction substrate for monophenolase and diphenolase assays, respectively. […] Finally, 20 units of enzyme was quickly added to the reaction mixture and incubated at 30 °C for 10 min. […] The assay was carried out in triplicate and DMSO was used as control[17].

mushroom tyrosinase = assay: Reversibility of inhibitory effect on tyrosinase (L-DOPA substrate); format: biochemical; conditions: inhibitor 0-25 µM, 30 °C, pH 6.8
Excerpt: Measurement method was substantially the same to that described above, changing the added concentration of the enzyme solution, different concentrations of inhibitor on mushroom tyrosinase L-DOPA as reaction substrate.

[3] = Copper(II) stability constants determination and pCu2+; format: physicochemical
Protocol: (§1) An automated titration system used in the study consists of a Metrohm 765 Dosimat autoburette, a Mettler Toledo MP230 pH metre with SENTEK pH electrode (P11), and an HP 8453 UV-visible spectrophotometer with a Hellem quartz flow cuvette being circulated through by a Gilson Mini-plus #3 pump—speed capability (20 ml/min). A potassium chloride electrolyte solution (0.1 M) was used to maintain the ionic strength. The temperature of the test solutions was maintained in a thermostatic jacketed titration vessel at 25 °C (± 0.1 °C) using a Fisherbrand Isotemp water bath. The pH electrodes were calibrated using GLEE[25] with data obtained by titrating a volumetric standard HCl (0.1 M) in KCl (0.1 M) with KOH (0.1 M) under an argon gas atmosphere in the vessel. The solution under investigation was stirred vigorously during the experiment. […] All instruments were interfaced to a computer and controlled by an in-house programme. An automated titration adopted the following strategy: the pH of a solution was increased by 0.1 pH unit by the addition of KOH solution (0.1 M) from the autoburette. The pH readings were judged to be stable if their values varied by less than 0.01 pH unit after a set incubation period. […] The cycle was repeated until the defined end point pH value was achieved. Titrations were carried out in the solution with molar ratio of DMSO: H2O being 0.2: 1 due to the solubility issue of samples and/or the corresponding copper(II) complexes. Under this condition, the pH metre readings are shifted, compared to the aqueous solution. All the titration data were analysed with the HypSpec2014 programme (http://www.hyperquad.co.uk/)[26]^,[27]. The speciation plot and pM values were calculated with the HYSS programme. Based on deferiprone titrations, pCu^2+ at pH 7.6, denoted as pCu^2+7.6, with [ligand]total = 10 µM and [Metal]total = 1 µM, were calculated as close approximations for pCu^2+ at pH 7.4 in the aqueous solution. Analytical grade reagent materials were used in the preparation of all solutions.

[4] = pKa determination by spectrophotometric titration; format: physicochemical; conditions: DMSO/water solution (molar ratio 0.2:1) with 0.1 M KCl, 25 °C
Protocol: as §1

[5] = design: method as in PMID 26239546; conditions: literature value for kojic acid; cited from earlier work
[6] = 25 °C, 0.1 M KCl, DMSO:H2O molar ratio 0.2:1

SMILES | inhibition at 50 µM [2] | also measured
O=C(/C=C/c1ccc(O)cc1)c1ccc(O)cc1O [2′,4′,4-trihydroxychalcone] |  | Inhibition rate [1]: 67%
Cn1cc(O)c(=O)cc1/C=C/C(=O)c1ccc(F)cc1 [Compound 1a] | 85.3% | Reversibility of inhibition on diphenolase activity of tyrosinase (mushroom tyrosinase): reversible
COc1ccc(C(=O)/C=C/c2cc(=O)c(O)cn2C)c(O)c1 [Compound 1b] | 66.7% | 
COc1ccc(C(=O)/C=C/c2cc(=O)c(O)co2)c(OC)c1 [Compound 1c] | 50.3% | 
O=C(/C=C/c1cc(=O)c(O)c[nH]1)c1ccc(F)cc1 [Compound 1d] | 89.5% | Reversibility of inhibition on diphenolase activity of tyrosinase (mushroom tyrosinase): reversible
CCn1cc(O)c(=O)cc1/C=C/C(=O)c1ccccc1 [Compound 1e] | 63.3% | 
CCn1cc(O)c(=O)cc1/C=C/C(=O)c1ccc(O)c(O)c1 [Compound 1f] | 78.8% | 
CCn1cc(O)c(=O)cc1/C=C/C(=O)c1ccc(OC)cc1O [Compound 1g] | 71.4% | 
CCn1cc(O)c(=O)cc1/C=C/C(=O)c1ccc(F)cc1 [Compound 1h] | 57.8% | 
Cn1cc(O)c(=O)cc1/C=C/C(=O)c1ccccc1 [Compound 1i] | 72.8% | 
CCCCn1cc(O)c(=O)cc1/C=C/C(=O)c1ccc(O)c(O)c1 [Compound 1j] | 69.4% | 
CCCCn1cc(O)c(=O)cc1/C=C/C(=O)c1ccc(OC)cc1O [Compound 1k] | 64.6% | 
CCCCn1cc(O)c(=O)cc1/C=C/C(=O)c1ccc(F)cc1 [Compound 1l] | 50.3% | 
O=C(/C=C/c1cc(=O)c(O)c[nH]1)c1ccccc1 [Compound 1m] | 66.7% | 
COc1ccc(C(=O)/C=C/c2cc(=O)c(O)c[nH]2)cc1OC [Compound 1n] | 87.6% | log β1 (log stability constant of copper complex CuLH) [3, 6]: 20.9; log β2 (log stability constant of copper complex CuL2H2) [3, 6]: 40.4; pCu2+ ([3]; [Cu]total=10^-6 M, [L]total=10^-5 M, pH 7.4, calculated from pKa and log stability constants with HYSS): 9.9; pKa ([4]; DMSO:H2O molar ratio 0.2:1, read-out: pKa (1-NH)): 12; pKa ([4]; DMSO:H2O molar ratio 0.2:1, read-out: pKa (4-oxo functional group)): 3.3; pKa ([4]; DMSO:H2O molar ratio 0.2:1, read-out: pKa (5-hydroxyl group)): 8.8
COc1ccc(C(=O)/C=C/c2cc(=O)c(O)c[nH]2)c(O)c1 [Compound 1o] | 63.3% | 
O=c1cc(CO)occ1O [Kojic acid] |  | pCu2+ [5]: 7.3
